In US20230144824A1, “1H-PYRAZOLO[4,3-d]PYRIMIDINE COMPOUNDS AS TOLL-LIKE RECEPTOR 7 (TLR7) AGONISTS” (BRISTOL-MYERS SQUIBB COMPANY, priority 2020, published 2023):

Tests used:
[1] = target: T1, human TLR7 (Homo sapiens, UniProt Q9NYK1); experiment: Human TLR7 agonist activity assay (HEK-Blue TLR7 SEAP reporter); assay type: cell-based; conditions: HEK-Blue TLR7 cells, 18 h treatment, average where assay performed multiple times, read-out: hTLR7 Agonism EC50
T1 construct: host or cells: HEK-Blue TLR7 cells (engineered human embryonic kidney cells)
T1 sequence (Q9NYK1 27-1049): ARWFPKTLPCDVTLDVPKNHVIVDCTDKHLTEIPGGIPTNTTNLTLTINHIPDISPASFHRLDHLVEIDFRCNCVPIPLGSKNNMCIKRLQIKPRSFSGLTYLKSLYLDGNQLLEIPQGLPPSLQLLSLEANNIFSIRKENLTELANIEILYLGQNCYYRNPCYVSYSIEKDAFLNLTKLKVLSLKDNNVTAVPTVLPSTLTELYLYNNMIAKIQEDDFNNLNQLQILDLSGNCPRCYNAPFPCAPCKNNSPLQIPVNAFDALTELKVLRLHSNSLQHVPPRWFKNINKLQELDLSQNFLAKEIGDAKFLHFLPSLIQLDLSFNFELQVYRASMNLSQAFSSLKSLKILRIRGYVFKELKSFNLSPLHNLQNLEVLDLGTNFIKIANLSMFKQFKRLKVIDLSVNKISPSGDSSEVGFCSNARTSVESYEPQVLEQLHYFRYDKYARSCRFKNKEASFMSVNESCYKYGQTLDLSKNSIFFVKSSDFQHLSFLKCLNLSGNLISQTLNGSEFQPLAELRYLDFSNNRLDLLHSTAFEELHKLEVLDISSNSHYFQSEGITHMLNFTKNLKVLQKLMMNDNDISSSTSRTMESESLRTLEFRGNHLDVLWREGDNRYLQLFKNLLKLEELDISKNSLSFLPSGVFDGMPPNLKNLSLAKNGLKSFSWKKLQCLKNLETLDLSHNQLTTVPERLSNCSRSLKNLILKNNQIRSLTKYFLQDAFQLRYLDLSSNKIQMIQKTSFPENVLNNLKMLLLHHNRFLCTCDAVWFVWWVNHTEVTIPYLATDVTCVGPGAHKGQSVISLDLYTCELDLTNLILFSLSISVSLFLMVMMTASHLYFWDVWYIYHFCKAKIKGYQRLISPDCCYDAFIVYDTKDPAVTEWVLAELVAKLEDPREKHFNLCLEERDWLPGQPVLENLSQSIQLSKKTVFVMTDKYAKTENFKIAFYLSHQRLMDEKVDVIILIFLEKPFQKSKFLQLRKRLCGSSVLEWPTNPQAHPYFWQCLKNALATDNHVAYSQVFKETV
Description: This procedure describes a method for assaying human TLR7 (hTLR7) agonist activity of the compounds disclosed in this specification.
HEK-Blue™ TLR7 cells were added to each well of a 384-well tissue-culture plate (15,000 cells per well) and incubated 16-18 h at 37° C., 5% CO2. Compounds (100 nl) were dispensed into wells containing the HEK-Blue™ TLR cells and the treated cells were incubated at 37° C., 5% CO2. After 18 h treatment ten microliters of freshly-prepared Quanti-Blue™ reagent (Invivogen) was added to each well, incubated for 30 min (37° C., 5% CO2) and SEAP levels measured using an Envision plate reader (OD=620 nm). The half maximal effective concentration values (EC50; compound concentration which induced a response halfway between the assay baseline and maximum) were calculated.

[2] = test system: CD69; experiment: Induction of CD69 in human whole blood; assay type: cell-based; conditions: Homo sapiens, 17 h, 100% set to 1 uM of resiquimod, average where assay performed multiple times, read-out: hWB CD69 EC50
Description: The induction of Type I interferon (IFN) MX-1 genes and the B-cell activation marker CD69 are downstream events that occur upon activation of the TLR7 pathway. The following is a human whole blood assay that measures their induction in response to a TLR7 agonist.
Heparinized human whole blood was harvested from human subjects and treated with test TLR7 agonist compounds at 1 mM. The blood was diluted with RPMI 1640 media and Echo was used to predot 10 nL per well giving a final concentration of 1 uM (10 nL in 10 uL of blood). After mixing on a shaker for 30 sec, the plates were covered and placed in a 37° C. chamber for o/n=17 hrs. Fixing/lysis buffer was prepared (5×->1× in H2O, warm at 37° C.; Cat #BD 558049) and kept the perm buffer (on ice) for later use.
For surface markers staining (CD69): prepared surface Abs: 0.045 ul hCD14-FITC (ThermoFisher Cat #MHCD1401)+0.6 ul hCD19-ef450 (ThermoFisher Cat #48-0198-42)+1.5 ul hCD69-PE (cat #BD555531)+0.855 ul FACS buffer. Added 3 ul/well, spin1000 rpm for 1 min and mixed on shaker for 30 sec, put on ice for 30 mins. Stop stimulation after 30 minutes with 70 uL of prewarmed 1× fix/lysis buffer and use Feliex mate to resuspend (15 times, change tips for each plate) and incubate at 37 C for 10 minutes.
Centrifuge at 2000 rpm for 5 minutes aspirate with HCS plate washer, mix on shaker for 30 sec and then wash with 70 uL in dPBS and pelleted 2×s (2000 rpm for 5 min) and 50 ul wash in FACS buffer pelleted 1×s (2000 rpm for 5 min). Mix on shaker for 30 sec. For Intracellular markers staining (MX-1): Add 50 ul of BD Perm buffer III and mix on shaker for 30 sec. Incubate on ice for 30 minutes (in the dark). Wash with 50 uL of FACS buffer 2×(spin @2300 rpm×5 min after perm) followed by mixing on shaker for 30 sec. Resuspended in 20 ul of FACS buffer containing MX1 antibody ( )(4812)-Alexa 647: Novus Biologicals #NBP2-43704AF647) 20 ul FACS bf+0.8 ul hIgG+0.04 ul MX-1. Spin 1000 rpm for 1 min, mix on shaker for 30 se and the samples were incubated at RT in the dark for 45 minutes followed by washing 2×FACS buffer (spin @2300 rpm×5 min after perm). Resuspend 20 ul (35 uL total per well) of FACS buffer and cover with foil and place in 4° C. to read the following day. Plates were read on iQuePlus. The results were loaded into toolset and IC50 curves are generated in curve master. The y-axis 100% is set to 1 uM of resiquimod.

CCCCNc1nc(N)nc2cnn(Cc3ncc(C4CCN(C(=O)CCN(C)C)CC4)cc3OC)c12 [Compound 109, 1-[4-(6-{[5-amino-7-(butylamino)-1H-pyrazolo[4,3-d]pyrimidin-1-yl]methyl}-5-methoxypyridin-3-yl)piperidin-1-yl]-3-(dimethylamino)propan-1-one]
EC50 [1]: 0.215 µM | EC50 [2]: 0.0145 µM

CCCCNc1nc(N)nc2cnn(Cc3ncc(C4CCN(C(=O)CC(C)(C)O)CC4)cc3OC)c12 [Compound 110, 1-[4-(6-{[5-amino-7-(butylamino)-1H-pyrazolo[4,3-d]pyrimidin-1-yl]methyl}-5-methoxypyridin-3-yl)piperidin-1-yl]-3-hydroxy-3-methylbutan-1-one]
EC50 [1]: 0.343 µM | EC50 [2]: 0.382 µM

CCCCNc1nc(N)nc2cnn(Cc3ncc(C4CCN(C)CC4)cc3OC)c12 [Compound 111, N7-butyl-1-{[3-methoxy-5-(1-methylpiperidin-4-yl)pyridin-2-yl]methyl}-1H-pyrazolo[4,3-d]pyrimidine-5,7-diamine]
EC50 [1]: 0.0653 µM | EC50 [2]: 0.0054 µM

CCCCNc1nc(N)nc2cnn(Cc3ncc(C4CCN(C5CCOCC5)CC4)cc3OC)c12 [Compound 112, N7-butyl-1-({3-methoxy-5-[1-(oxan-4-yl)piperidin-4-yl]pyridin-2-yl}methyl)-1H-pyrazolo[4,3-d]pyrimidine-5,7-diamine]
EC50 [1]: 0.034 µM | EC50 [2]: 0.0059 µM

CCCCNc1nc(N)nc2cnn(Cc3ncc(C4CCN(C(C)C)CC4)cc3OC)c12 [Compound 113, N7-butyl-1-({3-methoxy-5-[1-(propan-2-yl)piperidin-4-yl]pyridin-2-yl}methyl)-1H-pyrazolo[4,3-d]pyrimidine-5,7-diamine]
EC50 [1]: 0.0472 µM | EC50 [2]: 0.0094 µM

CCCCNc1nc(N)nc2cnn(Cc3ncc(C4CCN(CCO)CC4)cc3OC)c12 [Compound 114, 2-[4-(6-{[5-amino-7-(butylamino)-1H-pyrazolo[4,3-d]pyrimidin-1-yl]methyl}-5-methoxypyridin-3-yl)piperidin-1-yl]ethan-1-ol]
EC50 [1]: 0.0499 µM | EC50 [2]: 0.0036 µM

CCCCNc1nc(N)nc2cnn(Cc3ncc(C4CCN(C5CNC5)CC4)cc3OC)c12 [Compound 115, 1-({5-[1-(azetidin-3-yl)piperidin-4-yl]-3-methoxypyridin-2-yl}methyl)-N7-butyl-1H-pyrazolo[4,3-d]pyrimidine-5,7-diamine]
EC50 [1]: 0.447 µM | EC50 [2]: 0.0647 µM

CCCCNc1nc(N)nc2cnn(Cc3ncc(C4CCN(C5CCS(=O)(=O)CC5)CC4)cc3OC)c12 [Compound 116, 4-[4-(6-{[5-amino-7-(butylamino)-1H-pyrazolo[4,3-d]pyrimidin-1-yl]methyl}-5-methoxypyridin-3-yl)piperidin-1-yl]-1λ^6-thiane-1,1-dione]
EC50 [1]: 0.0846 µM | EC50 [2]: 0.0105 µM

CCCCNc1nc(N)nc2cnn(Cc3ncc(C4CCN(C(=O)CN5CC6(CN(C)C6)C5)CC4)cc3OC)c12 [Compound 117, 1-[4-(6-{[5-amino-7-(butylamino)-1H-pyrazolo[4,3-d]pyrimidin-1-yl]methyl}-5-methoxypyridin-3-yl)piperidin-1-yl]-2-{6-methyl-2,6-diazaspiro[3.3]heptan-2-yl}ethan-1-one]
EC50 [1]: 0.856 µM | EC50 [2]: 0.313 µM

CCCCNc1nc(N)nc2cnn(Cc3ncc(C4CCN(C(=O)CN5C[C@@H]6C[C@H]5CN6)CC4)cc3OC)c12 [Compound 118, 1-[4-(6-{[5-amino-7-(butylamino)-1H-pyrazolo[4,3-d]pyrimidin-1-yl]methyl}-5-methoxypyridin-3-yl)piperidin-1-yl]-2-[(1S,4S)-2,5-diazabicyclo[2.2.1]heptan-2-yl]ethan-1-one]
EC50 [1]: 0.716 µM | EC50 [2]: 0.89 µM

CCCCNc1nc(N)nc2cnn(Cc3ncc(C4CCN(CC(N)=O)CC4)cc3OC)c12 [Compound 119, 2-[4-(6-{[5-amino-7-(butylamino)-1H-pyrazolo[4,3-d]pyrimidin-1-yl]methyl}-5-methoxypyridin-3-yl)piperidin-1-yl]acetamide]
EC50 [1]: 0.165 µM | EC50 [2]: 0.0051 µM

CCCCNc1nc(N)nc2cnn(Cc3ncc(C4CCN(CC(=O)N(C)C)CC4)cc3OC)c12 [Compound 120, 2-[4-(6-{[5-amino-7-(butylamino)-1H-pyrazolo[4,3-d]pyrimidin-1-yl]methyl}-5-methoxypyridin-3-yl)piperidin-1-yl]-N,N-dimethylacetamide]
EC50 [1]: 0.0791 µM | EC50 [2]: 0.002 µM

CCCCNc1nc(N)nc2c(C)nn(Cc3ncc(C4CCN(C5CCOCC5)CC4)cc3OC)c12 [Compound 121, N7-butyl-1-({3-methoxy-5-[1-(oxan-4-yl)piperidin-4-yl]pyridin-2-yl}methyl)-3-methyl-1H-pyrazolo[4,3-d]pyrimidine-5,7-diamine]
EC50 [1]: 0.602 µM | EC50 [2]: 0.122 µM

CCCCNc1nc(N)nc2c(C)nn(Cc3ncc(C4CCN(C(C)C)CC4)cc3OC)c12 [Compound 122, N7-butyl-1-({3-methoxy-5-[1-(propan-2-yl)piperidin-4-yl]pyridin-2-yl}methyl)-3-methyl-1H-pyrazolo[4,3-d]pyrimidine-5,7-diamine]
EC50 [1]: 0.193 µM | EC50 [2]: 0.0187 µM

CCCCNc1nc(N)nc2c(C)nn(Cc3ncc(C4CCN(C)CC4)cc3OC)c12 [Compound 123, N7-butyl-1-{[3-methoxy-5-(1-methylpiperidin-4-yl)pyridin-2-yl]methyl}-3-methyl-1H-pyrazolo[4,3-d]pyrimidine-5,7-diamine]
EC50 [1]: 0.491 µM | EC50 [2]: 0.0402 µM

CCC[C@@H](CCO)Nc1nc(N)nc2cnn(Cc3ncc(C4CCNCC4)cc3OC)c12 [Compound 124, (3S)-3-[(5-amino-1-{[3-methoxy-5-(piperidin-4-yl)pyridin-2-yl]methyl}-1H-pyrazolo[4,3-d]pyrimidin-7-yl)amino]hexan-1-ol]
EC50 [1]: 0.189 µM | EC50 [2]: 0.0569 µM

CCC[C@@H](CCO)Nc1nc(N)nc2cnn(Cc3ncc(C4CCN(CCO)CC4)cc3OC)c12 [Compound 125, (3S)-3-{[5-amino-1-({5-[1-(2-hydroxyethyl)piperidin-4-yl]-3-methoxypyridin-2-yl}methyl)-1H-pyrazolo[4,3-d]pyrimidin-7-yl]amino}hexan-1-ol]
EC50 [1]: 0.0578 µM | EC50 [2]: 0.0102 µM
